Results from patent EP2261259B1, “Immunoassay for N-(3-chlorophenyl)piperazine-based anti-depressants” (Randox Laboratories Ltd., priority 2009, dated 2010).
≈ marks a conversion by molar mass, not a printed value.

Tested on: antibody of the invention
Assay: Competitive ELISA (antibody-coated microtitre plate, hapten-HRP conjugate, TMB, absorbance at 450 nm)
Format: binding, sheep
Conditions: for %CR: percentage cross-reactivity based on 100% specificity to nefazodone; for %B/B0: B0 = absorbance at 0 ng/ml; for A450: absorbance at 450 nm; for IC50: standard concentration which produces 50% B/B0
Procedure: The process of developing an immunoassay is well known to the person skilled in the art. […] The serum from the immunised animal is collected when the antibody titre is sufficiently high. A conjugate is added to a sample containing the target analyte and the raised antibodies, and the conjugate and analyte compete for binding to the antibodies. The process may comprise fixing said serum antibodies to a backing substrate such as a polystyrene solid support or a biochip. The antibodies can be polyclonal or monoclonal. The signal emitted in the immunoassay is proportionate to the amount of conjugate bound to the antibodies which in turn is inversely proportionate to the analyte concentration. The signal can be detected or quantified by comparison with a calibrator.
The resulting immunogens were administered separately to adult sheep on a monthly basis to provide target-specific polyclonal antisera. IgG was extracted from the antisera via Caprylic acid/ammonium sulphate precipitation of immunoglobulin. Microtitre plates (Thermo Scientific, 95029180) were coated with antibody (125µl) in coating buffer (10mM Tris pH 8.5) at 37°C for 2 hours. Antibody was coated at 2.5µg/ml. The plates were then washed. […] The plates were then washed and 125µl of TMB (Randox, 4380-15) was added to each well and left at room temperature for 20mins in the dark. The reaction was stopped using 125µl of 0.2M sulphuric acid. The absorbancies were read at 450nm with an ELISA microplate reader (BIO-TEK Instruments, EL340) and the means calculated. Antibody specificity and sensitivity were then determined

[1] = standard concentration 0.156 ng/ml
[2] = standard concentration 0.313 ng/ml
[3] = standard concentration 0.625 ng/ml
[4] = standard concentration 1.250 ng/ml
[5] = standard concentration 2.500 ng/ml
[6] = standard concentration 5.000 ng/ml
[7] = standard concentration 10.000 ng/ml

| SMILES | %CR [%] | %B/B0 [1] [%] | A450 [1] | %B/B0 [2] [%] | A450 [2] | %B/B0 [3] [%] | A450 [3] | %B/B0 [4] [%] | A450 [4] | %B/B0 [5] [%] | A450 [5] | %B/B0 [6] [%] | A450 [6] | %B/B0 [7] [%] | A450 [7] | IC50 [ng/mL] |
| --- | --- | --- | --- | --- | --- | --- | --- | --- | --- | --- | --- | --- | --- | --- | --- | --- |
| CCc1nn(CCCN2CCN(c3cccc(Cl)c3)CC2)c(=O)n1CCOc1ccccc1 [Nefazodone, 2-{3-[4-(3-chlorophenyl)-1-piperazinyl]propyl}-5-ethyl-4-(2-phenoxyethyl)-1,2,4-triazol-3-one] | 100 | 91 | 1.850 | 83 | 1.671 | 73 | 1.467 | 58 | 1.168 | 46 | 0.923 | 34 | 0.683 | 24 | 0.494 | 3.901 (≈ 0.0083 µM) |
| O=c1n(CCCN2CCN(c3cccc(Cl)c3)CC2)nc2ccccn12 [Trazodone, 2-{3-[4-(3-chlorophenyl)-1-piperazinyl]propyl}-[1,2,4]triazolo[4,3-a]pyridin-3(2H)-one] | 733 | 67 | 1.456 | 58 | 1.271 | 48 | 1.041 | 35 | 0.763 | 25 | 0.551 | 18 | 0.398 | 13 | 0.287 |  |
| Clc1cccc(N2CCNCC2)c1 [mCPP, N-(3-chlorophenyl)piperazine] | 46 | 85 | 1.821 | 79 | 1.679 | 72 | 1.534 | 65 | 1.380 | 55 | 1.183 | 48 | 1.027 | 42 | 0.888 | 8.476 (≈ 0.0431 µM) |
